According to patent US10093683B2, “Factor XIa inhibitors” (Merck Sharp & Dohme Corp., priority 2014, dated 2018):

What was measured:
human Factor XIa = human Factor XIa (Homo sapiens (Human), UniProt P03951); assay: Factor XIa Assay; format: biochemical; settings: purified human Factor XIa 40 pM, Z-Gly-Pro-Arg-AFC 100 μM, pH 7.4; read-out: FXIa Ki
Procedure, shortened: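 Ki derived from the dependence of Vo/Vi on inhibitor concentration under a competitive-inhibition model, after pre-equilibration of enzyme and inhibitor. Reaction: 40 pM human FXIa, 100 μM Z-Gly-Pro-Arg-AFC, HEPES 50 mM pH 7.4 with NaCl, CaCl2 and PEG 8000; run at room temperature or 37° C.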

Human plasma kallikrein = Human plasma kallikrein (Homo sapiens (Human), UniProt P03952); assay: Kallikrein Assay; format: biochemical; settings: purified Human plasma kallikrein 0.5 nM, Acetyl-K-P-R-AFC, pH 7.4; Ki from IC50 by Cheng Prusoff
Chain of Human plasma kallikrein (P03952 391-638): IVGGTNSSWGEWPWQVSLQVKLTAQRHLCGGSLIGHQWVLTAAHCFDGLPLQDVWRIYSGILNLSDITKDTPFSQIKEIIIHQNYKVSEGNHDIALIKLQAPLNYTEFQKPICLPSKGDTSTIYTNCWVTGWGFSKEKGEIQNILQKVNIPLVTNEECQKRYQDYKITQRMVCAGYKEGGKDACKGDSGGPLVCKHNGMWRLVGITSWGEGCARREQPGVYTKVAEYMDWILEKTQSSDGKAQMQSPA
Chain of Human plasma kallikrein (P03952 20-390 partner): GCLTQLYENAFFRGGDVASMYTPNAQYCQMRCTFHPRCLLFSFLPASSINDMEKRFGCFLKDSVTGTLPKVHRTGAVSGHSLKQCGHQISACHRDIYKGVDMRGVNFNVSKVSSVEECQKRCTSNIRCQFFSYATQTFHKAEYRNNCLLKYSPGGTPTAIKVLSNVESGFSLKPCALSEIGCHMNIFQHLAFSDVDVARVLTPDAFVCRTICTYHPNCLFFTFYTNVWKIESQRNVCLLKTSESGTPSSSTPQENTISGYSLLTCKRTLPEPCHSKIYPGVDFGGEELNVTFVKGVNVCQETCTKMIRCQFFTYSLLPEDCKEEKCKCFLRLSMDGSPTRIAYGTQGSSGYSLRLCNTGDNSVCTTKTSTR
Experimental: The effectiveness of a compound of the present invention as an inhibitor of Kallikrein can be determined using a relevant purified serine protease, and an appropriate synthetic substrate. The rate of hydrolysis of the chromogenic or fluorogenic substrate by the relevant serine protease was measured both in the absence and presence of compounds of the present invention. Assays were conducted at room temperature or at 37° C. […] A decrease in the rate of fluorescence change in the presence of inhibitor is indicative of enzyme inhibition. Such methods are known to one skilled in the art. The results of this assay are expressed as the inhibitory constant, Ki.
Kallikrein determinations were made in 50 mM HEPES buffer at pH 7.4 containing 150 mM NaCl, 5 mM CaCl2, and 0.1% PEG 8000 (polyethylene glycol; Fisher Scientific). Determinations were made using purified Human plasma kallikrein at a final concentration of 0.5 nM (Enzyme Research Laboratories) and the synthetic substrate, Acetyl-K-P-R-AFC (Sigma #C6608) at a concentration of […].
Times required to achieve equilibration between enzyme and inhibitor were determined in control experiments. The reactions were performed under linear progress curve conditions and fluorescence increase measured at 405 Ex/510 Em nm. […] IC50 was determined by inflection point from a four parameter logistic curve fit. Ki was calculated using the Cheng Prusoff equation, Ki=IC50/(1+([S]/Km)).

Chain of human Factor XIa (P03951 388-625): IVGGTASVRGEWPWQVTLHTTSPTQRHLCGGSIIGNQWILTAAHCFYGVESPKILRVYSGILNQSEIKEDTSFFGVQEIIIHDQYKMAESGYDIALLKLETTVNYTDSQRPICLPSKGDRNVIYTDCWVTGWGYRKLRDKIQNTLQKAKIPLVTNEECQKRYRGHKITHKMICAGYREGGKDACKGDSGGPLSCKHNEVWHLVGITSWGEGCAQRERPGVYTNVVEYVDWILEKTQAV
Chain of human Factor XIa (P03951 19-387 partner): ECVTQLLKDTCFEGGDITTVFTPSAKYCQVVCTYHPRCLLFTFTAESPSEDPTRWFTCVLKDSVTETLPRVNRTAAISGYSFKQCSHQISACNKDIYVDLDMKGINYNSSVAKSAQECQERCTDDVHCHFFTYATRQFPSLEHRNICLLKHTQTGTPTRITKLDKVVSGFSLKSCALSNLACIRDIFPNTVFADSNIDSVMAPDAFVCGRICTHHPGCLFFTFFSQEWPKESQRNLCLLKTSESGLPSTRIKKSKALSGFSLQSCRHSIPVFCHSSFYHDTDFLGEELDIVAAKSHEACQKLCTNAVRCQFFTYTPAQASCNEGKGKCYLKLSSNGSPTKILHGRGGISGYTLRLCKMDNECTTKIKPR

SMILES	Ki (human Factor XIa) [nM]	Ki (Human plasma kallikrein) [nM]
COC(=O)Nc1ccc(C(=O)N[C@@H](CC2CC2)C(=O)N2CC[C@@]3(C2)OC(=O)Nc2ccc(Cl)c(F)c23)cc1 [Example 61, methyl (4-(((S)-1-((R)-6-chloro-5-fluoro-2-oxo-1,2-dihydrospiro[benzo[d][1,3]oxazine-4,3′-pyrrolidin]-1′-yl)-3-cyclopropyl-1-oxopropan-2-yl)carbamoyl)phenyl)carbamate]	12.7	11.2
COC(=O)Nc1ccc(C(=O)N[C@@H](Cc2ccncc2)C(=O)N2CCC[C@@]3(C2)OC(=O)Nc2ccc(Cl)c(F)c23)cc1 [Example 62, methyl (4-(((S)-1-((R)-6-chloro-5-fluoro-2-oxo-1,2-dihydrospiro[benzo[d][1,3]oxazine-4,3′-piperidin]-1′-yl)-1-oxo-3-(pyridin-4-yl)propan-2-yl)carbamoyl)phenyl)carbamate]	0.88	0.54
COC(=O)Nc1ccc(C(=O)N[C@@H](CC2CCOCC2)C(=O)N2CCC[C@@]3(C2)OC(=O)Nc2ccc(Cl)cc23)cc1 [Example 65, methyl (4-(((S)-1-((R)-6-chloro-2-oxo-1,2-dihydrospiro[benzo[d][1,3]oxazine-4,3′-piperidin]-1′-yl)-1-oxo-3-(tetrahydro-2H-pyran-4-yl)propan-2-yl)carbamoyl)phenyl)carbamate]	41.5	5.4
COC(=O)Nc1ccc(C(=O)N[C@@H](CC2CC2)C(=O)N2CCC[C@@]3(C2)OC(=O)Nc2ccc(C)cc23)cc1 [Example 66, methyl (4-(((S)-3-cyclopropyl-1-((R)-6-methyl-2-oxo-1,2-dihydrospiro[benzo[d][1,3]oxazine-4,3′-piperidin]-1′-yl)-1-oxopropan-2-yl)carbamoyl)phenyl)carbamate]	30	3.8
COC(=O)Nc1ccc(C(=O)N[C@@H](Cc2ccc(OC)cn2)C(=O)N2CCC[C@@]3(C2)OC(=O)Nc2ccc(Cl)c(F)c23)cc1 [Example 75, methyl (4-(((S)-1-((R)-6-chloro-5-fluoro-2-oxo-1,2-dihydrospiro[benzo[d][1,3]oxazine-4,3′-piperidin]-1′-yl)-3-(5-methoxypyridin-2-yl)-1-oxopropan-2-yl)carbamoyl)phenyl)carbamate]	1.9	1.56
COC(=O)Nc1ccc(C(=O)N[C@@H](Cc2ccncc2F)C(=O)N2CCC[C@@]3(C2)OC(=O)Nc2ccc(Cl)c(F)c23)cc1 [Example 76, methyl (4-(((S)-1-((R)-6-chloro-5-fluoro-2-oxo-1,2-dihydrospiro[benzo[d][1,3]oxazine-4,3′-piperidin]-1′-yl)-3-(3-fluoropyridin-4-yl)-1-oxopropan-2-yl)carbamoyl)phenyl)carbamate]	1.39	1.2

Second part, the compound after the results:

Ki (human Factor XIa) [nM]	Ki (Human plasma kallikrein) [nM]	SMILES
5.64	1.73	COC(=O)Nc1ccc(C(=O)N[C@@H](CC2CC2)C(=O)N2CCC[C@@]3(C2)OC(=O)Nc2ccc(Cl)c(F)c23)cc1 [Example 63, methyl (4-(((S)-1-((R)-6-chloro-5-fluoro-2-oxo-1,2-dihydrospiro[benzo[d][1,3]oxazine-4,3′-piperidin]-1′-yl)-3-cyclopropyl-1-oxopropan-2-yl)carbamoyl)phenyl)carbamate]
3.58	17.7	COC(=O)Nc1ccc(C(=O)N[C@@H](CC2CCCCC2)C(=O)N2CCC[C@@]3(C2)OC(=O)Nc2ccc(Cl)cc23)cc1 [Example 72, methyl (4-(((S)-1-((R)-6-chloro-2-oxo-1,2-dihydrospiro[benzo[d][1,3]oxazine-4,3′-piperidin]-1′-yl)-3-cyclohexyl-1-oxopropan-2-yl)carbamoyl)phenyl)carbamate]
2.82	2.53	COC(=O)Nc1ccc(C(=O)N[C@@H](Cc2ccc(F)cn2)C(=O)N2CCC[C@@]3(C2)OC(=O)Nc2ccc(Cl)c(F)c23)cc1 [Example 74, methyl (4-(((S)-1-((R)-6-chloro-5-fluoro-2-oxo-1,2-dihydrospiro[benzo[d][1,3]oxazine-4,3′-piperidin]-1′-yl)-3-(5-fluoropyridin-2-yl)-1-oxopropan-2-yl)carbamoyl)phenyl)carbamate]
